In patent US12263156B2, “Use of small molecule inhibitors of the BfrB:Bfd interaction in biofilms” (priority 2020, dated 2025):
“And” between values parts separate entries of the source, which are not always exact repeats. Identical values can stand only once.

Experiments:
[1] = tested on: P. aeruginosa; conditions: reported MIC; cited from earlier work
[2] = target: BfrB (apo-BfrB) (Pseudomonas aeruginosa (strain ATCC 15692 / DSM 22644 / CIP 104116 / JCM 14847 / LMG 12228 / 1C / PRS 101 / PAO1), UniProt Q9HY79); assay: Fluorescence polarization measurement of dissociation constant (Kd); format: binding; conditions: for Kd: 100 mM potassium phosphate buffer pH 7.6, 1 mM TCEP, 0.5% DMSO, average ± SD
Procedure: Values were obtained in 100 mM potassium phosphate buffer (pH 7.6) containing 1 mM TCEP and 0.5% DMSO. The initial concentrations of KM-5-25 and KM-5-66 were 5 μM. The Kd values are the average and standard deviation from three independent measurements. […] The IC50 values are the average and the standard derivations from three independent experiments.
Prior to testing the effect that the 4-substituted isoindoline-1,3-dione derivatives might exert on P. aeruginosa cells, the strength of their interaction with BfrB was evaluated in vitro with a fluorescence polarization assay developed based on the intrinsic fluorescence of the isoindoline-1,3-dione moiety.

[3] = tested on: P. aeruginosa PAO1; assay: Half maximal inhibitory concentration (IC50) of planktonic growth, CFU/mL enumeration; format: cell-based, Pseudomonas aeruginosa; conditions: for IC50: Pseudomonas aeruginosa, PAO1
Procedure: Chemicals were purchased from Fisher Scientific (Waltham, MA) unless otherwise stated. P. aeruginosa PAO1 was obtained from the University of Washington Genome center.^80 The PAO1 strain expressing enhanced yellow fluorescent protein (EYFP) was prepared as described in Soldano, A.; Yao, H.; Chandler, J. R.; Rivera, M. (2020) Inhibiting Iron Mobilization from Bacterioferritin in Pseudomonas aeruginosa Impairs Biofilm Formation Irrespective of Environmental Iron Availability. ACS Infect. Dis. 6, 447-458. 10.1021/acsinfecdis.9b00398.^26 Clinical isolates of P. aeruginosa were purchased from JMI Laboratories (North Liberty, IA, USA). […] Starter cultures of P. aeruginosa PAO1 in 5 mL LB media were grown for 13 hours in 50 mL conical tubes at 37° C. and 220 rpm. For biofilm experiments, a EYFP-expressing P. aeruginosa strain was routinely grown in Pseudomonas Isolation (PI) media (20 g L^−1 peptone, 0.3 g L^−1 MgCl2·6H O, 10 g L^−1 K2SO4, 25 mg L^−1 irgasan, and 20 mL L^−1 glycerol, pH 7.0). Starter cultures were grown from a single colony at 37° C. and shaking at 220 rpm for 14 hours in 5 mL PI media supplemented with 10 μM Fe. Pellicle biofilms were cultured for 48 hours at 30° C. in PI media supplemented with 20 μM Fe. Surface-attached biofilms were cultured in AB minimal media^81 supplemented with trace metals [0.15 μM (NH4)2MoO4, 3 μM CuSO4, 2 μM Co(NO3)2, 9.4 μM Na2B4O7, and 7.6 μM ZnSO4], 3 mM glucose and 15 μM Fe. Iron supplementation was carried out by addition of a small volume of filter-sterilized 10 mM (NH4)2Fe(SO4)2 (pH˜2.0) solution. […]; IC50 values (Table 1 below) were determined as reported previously^25 with small modifications. In brief: precultures of P. aeruginosa PAO1 (5 mL) were grown in LB media for 13 hours at 37° C. and 220 rpm in 50 mL conical tubes (VWR International, PA). The cells were centrifuged for 5 min at 4,000 rpm and 4° C., washed two times and then diluted in buffer (100 mM KH2PO4 and 15 mM (NH4)2SO4 to an optical density at 600 nm (OD600) of 0.1. A small volume of compound stock solution (10 mM) was transferred to a microcentrifuge tube, initially diluted with DMSO to 20 μL, and then diluted to 1 mL with preculture cell suspension in defined media with OD600=0.0001, so the final DMSO concentration is 2%. The resultant cell suspension (200 μL) was transferred to a clear-bottom polystyrene 96-well plate (VWR International, PA) covered with a lid and incubated at 35° C. and 205 cpm for 24 h in a Synergy H1 microplate reader (Biotek Instruments Inc., Winooski, VT). The cell cultures were serially diluted and then plated on PI Agar (PIA; BD Biosciences, San Jose, CA) plates for enumeration of viable cells (CFU/mL). The % growth was calculated from the ratio CFU/mL(treated)/CFU/mL(untreated control). To calculate the IC50 values, the % growth was plotted as a function of compound concentration, expressed as log[compound] (μM), and fitted to the 4-parameter logistic model describing the sigmoid-shaped response pattern (equation 1),^83 where b is the slope factor, max is the upper asymptote (plateau), and min is the lower asymptote. Values are the average and standard deviation from three independent experiments.

[4] = tested on: EYFP-expressing P. aeruginosa PAO1 biofilms; assay: Flow cell biofilm assay (CLSM imaging, COMSTAT biomass); format: cell-based, Pseudomonas aeruginosa; conditions: 3-day old flow cell biofilms, 24 h treatment at 25× the MIC
Procedure: ACS Infect. Dis. […] The experimental shear stress was 0.14-dyn/cm^2 (shear rate=14 s^−1, pressure=7.1 mbar, flow rate=0.4 mL/min) and the switch time was set to 540 s. […] During biofilm growth and challenge with antibacterial, the culture medium in the reservoirs was removed every 12 hours and replaced with fresh pre-warmed medium. […] The biofilms were imaged with the aid of a Leica TCS SP8 confocal microscope (Leica Microsystems, Germany) using a HC PL apo CS2 63×/1.4 oil objective. […] Image stacks were acquired with a z-step size of 0.3 μm at randomly chosen positions. The Leica Application Suite X (LAS-X) software was used for image stack processing.^54 Quantitative analysis of biofilm biomass was performed using the COMSTAT computer program^54 and the Otsu method of automatic thresholding.^85
The treated biofilms were counterstained with the cell impermeable fluorescent nucleic acid dye Sytox Red and then imaged with the aid of confocal laser scanning microscopy (CLSM).

[5] = tested on: EYFP-expressing P. aeruginosa PAO1 pellicle biofilms; assay: Pellicle biofilm assay (CLSM imaging, COMSTAT biomass); format: cell-based, Pseudomonas aeruginosa; conditions: 24 h; for tolerance or susceptibility of pellicle biofilms (CLSM): 2-day old pellicles, ciprofloxacin, tobramycin 25× and 50× the MIC, colistin above 10× the MIC
Procedure: (§1) Pellicle biofilms of EYFP-expressing P. aeruginosa PAO1 or clinical isolates were grown in PI media supplemented with 20 μM Fe. Starter cultures were diluted to OD600=0.001 in 4 mL media, placed in 35×10 mm petri dishes and incubated statically at 30° C. for 48 hours. The pellicles were transferred onto circular (1.5 cm diameter) glass coverslips by gently allowing the surface of a coverslip to contact a pellicle. The pellicle-adhered coverslip was washed in PBS and then deposited on top of 1.5 mL of AB challenge media contained in a well of a 12-well microplate, with the pellicle exposed to the media. […] The coverslip-adhered pellicles were exposed to challenge media at 30° C. for 24 hours, changing the challenge media every 12 hours by transferring the pellicle-adhered coverslip to a new plate containing pre-warmed challenge media.
Excess fluorescent dye was washed with PBS, the coverslip was mounted on a glass slide using 5 μL of SlowFade (Invitrogen, Carlsbad, CA) and the edges sealed with fingernail polish. CLSM image stacks (z-step size of 0.3 μm) were acquired with the aid of a Leica TCS SP8 microscope, as described above. Quantitative analysis was performed by determination of pellicle biomass using COMSTAT^54 and the Otsu method of automatic thresholding.^85
To expand the observations made with flow cell biofilms into a second biofilm model, the susceptibility of biofilms grown at the air-liquid interface (pellicles) was also studied.^56-57 Pellicle biofilms (henceforth pellicles) are an attractive alternative platform to study biofilms because pellicles are amenable to imaging by CLSM and to harvesting, which can be desirable for additional biofilm analysis.^26 To determine the susceptibility of pellicles to antibiotics or inhibitors of the BfrB-Bfd complex, 2-day old pellicles of EYFP-expressing P. aeruginosa cells were cultured in PI media supplemented with 20 μM Fe. The pellicles were transferred onto glass coverslips by allowing the surface of the coverslip to contact a pellicle.

[6] = tested on: EYFP-expressing P. aeruginosa PAO1 pellicle biofilms; assay: Determination of viable cells (CFU/mL) in pellicle biofilms; conditions: for % cell survival, CFU/mL(after treatment)/CFU/mL(pre-treatment): 2-day old pellicles, 24 h
Procedure: as §1
Pellicle biofilms were grown as described above. Planktonic and loosely attached cells were washed (3 times) by immersing the coverslip-adhered pellicles (biofilm facing up) into a well of a 12-well plate containing 3 mL of PBS, and incubating (5 min) with gentle rocking. To remove the pellicle from the coverslip, break the extracellular matrix and release cells from the biofilm, the coverslip-adhered pellicle was placed in a 50 mL conical tube containing a 2 mL suspension of zirconia beads (0.1 mm diameter, BioSpec Products), 10 mL PBS, 0.2 μg/mL alginate lyase and 0.2 μg/mL DNAse. The resultant mixture was incubated at room temperature for 3 min, followed by vigorous vortexing for 4 min. After sedimentation of the zirconia beads, a 100 μL aliquot was used for serial dilution and plating on PIA plates for subsequent enumeration of viable cells (CFU/mL).
To assess the efficacy of antibiotics and compounds with an approach complementary to imaging with CLSM, dispersing biofilm cells for subsequent enumeration of viable cells (CFU/mL) was resorted to. […] The biofilms were then harvested, and the cells dispersed into sterile PBS by vortexing in the presence of zirconia beads, prior to plating the cell suspensions for subsequent enumeration of CFU/mL. […] A characteristic of cells in the VBNC state is their inability to develop into colonies on routine culture media, even though the cells remain viable for long periods of time.^58-59 Evidence that bacterial cells can enter the VBNC has been obtained by several distinct methods,^59 one of which is the utilization of bacteria engineered to constitutively express bioluminescent proteins, and using the bioluminescence as a reporter of metabolic activity.

[7] = Aqueous solubility; format: physicochemical; conditions: aqueous solution
[8] = planktonic growth, 24 h, 35° C, defined media, 2% DMSO, average ± SD of three experiments

O=C(O)c1cn(C2CC2)c2cc(N3CCNCC3)c(F)cc2c1=O [ciprofloxacin]
MIC [1]: 0.25 μg/mL and 0.75 μM

O=C1NC(=O)c2c(NCc3cccc(Cl)c3O)cccc21 [KM-5-30, 4-((3-Chloro-2-hydroxybenzyl)amino)isoindoline-1,3-dione]
Kd [2]: 6 ± 1 µM | IC50 [3, 8]: 156 ± 30 µM | fold larger IC50 relative to KM-5-25 ([3]; relative to KM-5-25): ~2.5 fold

O=C1NC(=O)c2c(NCc3cc(F)ccc3O)cccc21 [JAG-5-7, 4-((5-Fluoro-2-hydroxybenzyl)amino)isoindoline-1,3-dione]
Kd [2]: 7 ± 2 µM | IC50 [3, 8]: 128 ± 26 µM

O=C1NC(=O)c2c(NCc3cccc(O)c3)cccc21 [Analog 12]
Kd [2]: 21 ± 3 µM | IC50 [3, 8]: > 120 µM

O=C1NC(=O)c2c(NCc3ccccc3O)cccc21 [Analog 11]
IC50 [3, 8]: 258 ± 23 µM

colistin
% survival (biomass remaining viable, COMSTAT) [4]: ~20% | tolerance or susceptibility of pellicle biofilms (CLSM) [5]: susceptible | fluorescence signal from viable cells expressing EYFP ([5]; colistin at 50× the MIC): undetectable | % cell survival, CFU/mL(after treatment)/CFU/mL(pre-treatment) ([6]; antibiotic at 25× the MIC): ~10% | % cell survival, CFU/mL(after treatment)/CFU/mL(pre-treatment) ([6]; antibiotic at 50× the MIC): ~1% | MIC [1]: 1 μg/mL and 0.79 μM

O=C1NC(=O)c2c(NCc3cc(O)cc(Cl)c3)cccc21 [KM-5-50, 4-((5-Chloro-3-hydroxybenzyl)amino)isoindoline-1,3-dione]
Kd [2]: 11 ± 2 µM | IC50 [3, 8]: 82 ± 16 µM

Nc1cccc2c1C(=O)NC2=O [Analog 8]
IC50 (μM) [3, 8]: Not active

O=C1NC(=O)c2c(NCCCc3cc(Cl)ccc3O)cccc21 [KM-5-54]
Kd [2]: 0.22 ± 0.04 µM | fold increase of binding affinity relative to JAG-5-6 ([2]; relative to JAG-5-6): 2 fold | aqueous solubility (in words) [7]: poor water solubility

O=C1NC(=O)c2c(NCc3c(O)cccc3Cl)cccc21 [KM-5-29, 4-((6-Chloro-2-hydroxybenzyl)amino)isoindoline-1,3-dione]
Kd [2]: 6 ± 0.5 µM | aqueous solubility (in words) [7]: poorly soluble in aqueous solution

O=C1NC(=O)c2c(NCCCc3cc(F)ccc3O)cccc21 [JAG-5-6]
Kd [2]: 0.43 ± 0.07 µM | fold lowered Kd relative to KM-5-28 ([2]; relative to KM-5-28): ~3 fold | IC50 [3, 8]: 54 ± 9 µM | fold decrease in IC50 relative to KM-5-28 ([3]; relative to KM-5-28): ~2 fold

O=C1NC(=O)c2c(NCCCc3cc(O)cc(O)c3)cccc21 [KM-5-57]
Kd [2]: 2.5 ± 0.4 µM | fold increase of Kd relative to 16 ([2]; relative to 16): ~1.7 fold | IC50 [3, 8]: > 200 µM

NC[C@H]1O[C@H](O[C@H]2[C@H](O)[C@@H](O[C@H]3O[C@H](CO)[C@@H](O)[C@H](N)[C@H]3O)[C@H](N)C[C@@H]2N)[C@H](N)C[C@@H]1O [tobramycin, reference compound]
% survival (biomass remaining viable, COMSTAT) [4]: ~70% | tolerance or susceptibility of pellicle biofilms (CLSM) [5]: tolerant | % cell survival, CFU/mL(after treatment)/CFU/mL(pre-treatment) ([6]; antibiotic at 25× the MIC): ~70% | % cell survival, CFU/mL(after treatment)/CFU/mL(pre-treatment) ([6]; antibiotic at 50× the MIC): ~70% | MIC [1]: 0.5 μg/mL and 1.07 μM

O=C1NC(=O)c2c(NCCCc3cccc(O)c3)cccc21 [Analog 16]
Kd [2]: 1.5 ± 0.25 µM | IC50 [3, 8]: 121 ± 4 µM | relative compound activity (rank order) ([6]; pellicles treated 24 h with 50 μM of each analog): KM-5-66>KM-5-25>16>11

O=C1NC(=O)c2c(NCCCc3ccccc3O)cccc21 [KM-5-28]
Kd [2]: 1.4 ± 0.2 µM | IC50 [3, 8]: 96 ± 1 µM
